{
  "source": "patent US12325697B2",
  "about": "(Nimbus Clio, Inc., priority 2021, dated 2025)",
  "key": {"[1]": {"tested_on": "Jurkat (clone E6-1) cells, NFAT luciferase reporter", "test": "Jurkat Reporter Assay (NFAT Luciferase)", "type": "cell-based", "conditions": "Homo sapiens, anti-CD3 stimulation, 6 hr, read-out: Jurkat NFAT EC50"}, "[2]": {"tested_on": "Phospho-Zap70 (Y-319) in Jurkat wild-type (clone E6-1) cells", "test": "Jurkat pZAP70 HTRF Assay", "type": "cell-based", "conditions": "Homo sapiens, anti-CD3 5 μg/ml, 3 hr, read-out: ZAP70 Jurkat EC50"}, "[3]": {"target": "Recombinant human Cbl-b (aa 36-427) (Homo sapiens (Human), UniProt Q13191)", "sequence (Q13191 36-427)": "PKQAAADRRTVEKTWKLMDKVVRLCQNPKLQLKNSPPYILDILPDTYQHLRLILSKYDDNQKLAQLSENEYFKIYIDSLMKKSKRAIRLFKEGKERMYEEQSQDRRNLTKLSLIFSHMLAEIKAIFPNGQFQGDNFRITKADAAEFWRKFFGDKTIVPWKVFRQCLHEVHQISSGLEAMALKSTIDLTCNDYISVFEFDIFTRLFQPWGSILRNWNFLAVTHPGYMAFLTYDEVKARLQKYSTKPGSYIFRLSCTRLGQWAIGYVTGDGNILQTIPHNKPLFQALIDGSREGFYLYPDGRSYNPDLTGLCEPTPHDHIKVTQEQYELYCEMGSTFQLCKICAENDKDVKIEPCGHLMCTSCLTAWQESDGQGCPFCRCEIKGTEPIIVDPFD", "test": "Cbl-b Biochemical Assay (TR-FRET)", "conditions": "read-out: TR-FRET hCbl-b IC50", "outline": "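IC50 from 4-parameter fit of % inhibition (DMSO max, reference-inhibitor min), duplicate ten-point series. Compound preincubated with 6 nM Cbl-b, then Src-Zap70 (1-2.5 nM)/0.5 mM ATP reaction 60 min RT; EDTA quench with labelled UBE2D2-Ub and streptavidin-terbium, 60 min, HTRF at 520 nm.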"}},
  "data": [
    {"compound": "CCNc1cc(-c2ccc(C#N)cc2-c2nncn2C)cc(N2Cc3c(cc(CO)cc3C(F)(F)F)C2=O)n1", "note": "[ADX-2, 4-[2-(Ethylamino)-6-[6-(hydroxymethyl)-1-oxo-4-(trifluoromethyl)-3H-isoindol-2-yl]pyridin-4-yl]-3-(4-methyl-1,2,4-triazol-3-yl) benzonitrile]", "values": [
      {"measurement": "EC50", "setting": "[1]", "result": "< 200", "unit": "nM"},
      {"measurement": "EC50", "setting": "[2]", "result": "200 to 1000", "unit": "nM"},
      {"measurement": "IC50", "setting": "[3]", "result": "≤ 200", "unit": "nM"}
    ]},
    {"compound": "CCNc1cc(-c2ccc(C#N)cc2-c2nncn2C)cc(N2Cc3c(cc(COCC(C)(C)O)cc3C(F)(F)F)C2=O)n1", "note": "[AFE-1, 4-[2-(ethylamino)-6-{6-[(2-hydroxy-2-methylpropoxy)methyl]-1-oxo-4-(trifluoromethyl)-3H-isoindol-2-yl}pyridin-4-yl]-3-(4-methyl-1,2,4-triazol-3-yl)benzonitrile]", "values": [
      {"measurement": "EC50", "setting": "[1]", "result": "< 200", "unit": "nM"},
      {"measurement": "EC50", "setting": "[2]", "result": "200 to 1000", "unit": "nM"},
      {"measurement": "IC50", "setting": "[3]", "result": "≤ 200", "unit": "nM"}
    ]},
    {"compound": "CCNc1cc(-c2ccc(F)cc2-c2nncn2C)cc(N2Cc3c(cc(CO)cc3C(F)(F)F)C2=O)n1", "note": "[AEF-1, 2-(6-(Ethylamino)-4-(4-fluoro-2-(4-methyl-4H-1,2,4-triazol-3-yl)phenyl)pyridin-2-yl)-6-(hydroxymethyl)-4-(trifluoromethyl)isoindolin-1-one]", "values": [
      {"measurement": "EC50", "setting": "[1]", "result": "< 200", "unit": "nM"},
      {"measurement": "EC50", "setting": "[2]", "result": "< 200", "unit": "nM"},
      {"measurement": "IC50", "setting": "[3]", "result": "≤ 200", "unit": "nM"}
    ]},
    {"compound": "Cn1cnnc1-c1cc(F)ccc1-c1cc(C2CC2)nc(N2Cc3c(cc(COCC4(O)CCC4)cc3C(F)(F)F)C2=O)c1", "note": "[AFL-2, 2-{6-Cyclopropyl-4-[4-fluoro-2-(4-methyl-1,2,4-triazol-3-yl)phenyl]pyridin-2-yl}-6-{[(1-hydroxycyclobutyl)methoxy]methyl}-4-(trifluoromethyl)-3H-isoindol-1-one]", "values": [
      {"measurement": "EC50", "setting": "[1]", "result": "< 200", "unit": "nM"},
      {"measurement": "EC50", "setting": "[2]", "result": "< 200", "unit": "nM"},
      {"measurement": "IC50", "setting": "[3]", "result": "≤ 200", "unit": "nM"}
    ]},
    {"compound": "Cn1cnnc1-c1cc(F)ccc1-c1cc(C2CC2)nc(N2Cc3c(cc(CNCC4(O)CCC4)cc3C(F)(F)F)C2=O)c1", "note": "[AEY-1, 2-{6-Cyclopropyl-4-[4-fluoro-2-(4-methyl-1,2,4-triazol-3-yl)phenyl]pyridin-2-yl}-6-({[(1-hydroxycyclobutyl)methyl]amino}methyl)-4-(trifluoromethyl)-3H-isoindol-1-one]", "values": [
      {"measurement": "EC50", "setting": "[1]", "result": "< 200", "unit": "nM"},
      {"measurement": "EC50", "setting": "[2]", "result": "< 200", "unit": "nM"},
      {"measurement": "IC50", "setting": "[3]", "result": "≤ 200", "unit": "nM"}
    ]},
    {"compound": "CCNc1cc(-c2ccc(C#N)cc2-c2nncn2C)cc(N2Cc3c(cc(CNCCOC4CC4)cc3C(F)(F)F)C2=O)n1", "note": "[AGD-2, 4-[2-(6-{[(2-Cyclopropoxyethyl)amino]methyl}-1-oxo-4-(trifluoromethyl)-3H-isoindol-2-yl)-6-(ethylamino)pyridin-4-yl]-3-(4-methyl-1,2,4-triazol-3-yl)benzonitrile]", "values": [
      {"measurement": "EC50", "setting": "[1]", "result": "< 200", "unit": "nM"},
      {"measurement": "EC50", "setting": "[2]", "result": "< 200", "unit": "nM"},
      {"measurement": "IC50", "setting": "[3]", "result": "≤ 200", "unit": "nM"}
    ]},
    {"compound": "CCNc1cc(-c2ccc(C#N)cc2-c2nncn2C)cc(N2Cc3c(cc([C@H](O)CN(C)C)cc3C(F)(F)F)C2=O)n1", "note": "(single isomer, unassigned) [AGL-1]", "values": [
      {"measurement": "EC50", "setting": "[1]", "result": "< 200", "unit": "nM"},
      {"measurement": "EC50", "setting": "[2]", "result": "200 to 1000", "unit": "nM"},
      {"measurement": "IC50", "setting": "[3]", "result": "≤ 200", "unit": "nM"}
    ]}
  ]
}
